Data from patent US20170095502A1, “Antimicrobial Metal-Binding Polymers” (priority 2015, published 2017).

Assays:
[1] = tested on: vancomycin-resistant Enterococcus faecalis; experiment: checkerboard assay, MIC; settings: VRE
[2] = tested on: methicillin-resistant Staphylococcus aureus; experiment: checkerboard assay, MIC; settings: MRSA
[3] = tested on: Francisella tularensis (rabbit fever); type: cell-based
[4] = tested on: Methicillin-resistant Staphylococcus aureus (MRSA); experiment: inhibitory concentrations against drug-resistant bacteria (potentiation of methicillin); settings: at 4 ug/ml methicillin
Enterococcus faecium = experiment: inhibitory concentrations in hospital-acquired clinical wound isolates
Acinetobacter baumannii = experiment: as above
Pseudomonas aeruginosa = experiment: as above
Staphylococcus aureus = experiment: as above
[5] = tested on: Vancomycin-resistant Staphylococcus aureus (VRSA); experiment: inhibitory concentrations against drug-resistant bacteria (potentiation of vancomycin); settings: at 16 ug/ml vancomycin
[6] = tested on: Bacillus anthracis (anthrax); type: cell-based
Yersinia pestis (plague) = type: cell-based
Candida albicans = experiment: inhibitory concentrations in hospital-acquired clinical wound isolates
S. aureus BAA-44 = experiment: MIC alone or in combination with tetracycline; settings: for MIC: Staphylococcus aureus, BAA44
[7] = tested on: Vancomycin-resistant Enterococcus faecium (VRE); experiment: inhibitory concentrations against drug-resistant bacteria (potentiation of vancomycin); settings: at 16 μg/ml vancomycin
[8] = tested on: Burkholderia pseudomallei (melioidosis); type: cell-based

COc1ccc2cc3[n+](cc2c1OC)CCc1cc2c(cc1-3)OCO2 [Berberine, berberine, reference compound]
MIC [1]: 500 µg/mL | MIC [2]: 500 µg/mL

S=C(S)N1CCCC1 [PDTC, pyrrolidine dithiocarbamate]
activity against biothreats [3]: active | Inhibitory concentration ([4]; clinical isolate 6006): 25 µg/mL | Inhibitory concentration ([4]; clinical isolate 6051): 13 µg/mL | Inhibitory concentration ([4]; clinical isolate 6544): 13 µg/mL | Inhibitory concentration ([4]; clinical isolate 6605): 13 µg/mL | Inhibitory concentration ([4]; clinical isolate 6607): 13 µg/mL | Inhibitory concentration (Enterococcus faecium; clinical isolate 6080): 50 µg/mL | Inhibitory concentration (Enterococcus faecium; clinical isolate 6246): 50 µg/mL | Inhibitory concentration (Enterococcus faecium; clinical isolate 6831): 50 µg/mL | Inhibitory concentration (Acinetobacter baumannii; clinical isolate 6043): 100 µg/mL | Inhibitory concentration (Acinetobacter baumannii; clinical isolate 6063): 100 µg/mL | Inhibitory concentration (Acinetobacter baumannii; clinical isolate 6175): 100 µg/mL | Inhibitory concentration (Acinetobacter baumannii; clinical isolate 6272): 100 µg/mL | Inhibitory concentration (Acinetobacter baumannii; clinical isolate 6838): 100 µg/mL | Inhibitory concentration (Pseudomonas aeruginosa; clinical isolate 5983): 100 µg/mL | Inhibitory concentration (Pseudomonas aeruginosa; clinical isolate 6162): 100 µg/mL | Inhibitory concentration (Pseudomonas aeruginosa; clinical isolate 6186): 100 µg/mL | Inhibitory concentration (Pseudomonas aeruginosa; clinical isolate 6295): 100 µg/mL | Inhibitory concentration (Pseudomonas aeruginosa; clinical isolate 6311): 100 µg/mL | Inhibitory concentration (Staphylococcus aureus; clinical isolate 6061): 25 µg/mL | Inhibitory concentration (Staphylococcus aureus; clinical isolate 6108): 12.5 µg/mL | Inhibitory concentration (Staphylococcus aureus; clinical isolate B-313): 25 µg/mL | Inhibitory concentration (Staphylococcus aureus; clinical isolate B-767): 50 µg/mL | Inhibitory concentration (Staphylococcus aureus; clinical isolate B-14358): 50 µg/mL | Inhibitory concentration ([5]; clinical isolate VRS 1): 13 µg/mL | Inhibitory concentration ([5]; clinical isolate VRS 9): 13 µg/mL | Inhibitory concentration ([5]; clinical isolate VRS 116): 13 µg/mL | activity against biothreats [6]: active | activity against biothreats (Yersinia pestis (plague)): active | MIC [1]: 62.5 µg/mL | Inhibitory concentration (Candida albicans; clinical isolate Y-236): 12.5 µg/mL | Inhibitory concentration (Candida albicans; clinical isolate Y-477): 12.5 µg/mL | Inhibitory concentration (Candida albicans; clinical isolate Y-6359): 12.5 µg/mL | Inhibitory concentration (Candida albicans; clinical isolate Y-12983): 12.5 µg/mL | Inhibitory concentration (Candida albicans; clinical isolate Y-27022): 6.25 µg/mL | MIC (S. aureus BAA-44): 9 µg/mL | effect of PDTC and tetracycline (FIG. 1) (S. aureus BAA-44; combination with tetracycline): synergistic effect | MIC [2]: 62.5 µg/mL | Inhibitory concentration ([7]; clinical isolate 6098): 50 µg/mL | Inhibitory concentration ([7]; clinical isolate 6185): 50 µg/mL | Inhibitory concentration ([7]; clinical isolate 6591): 50 µg/mL | activity against biothreats [8]: active

CN(C)[C@@H]1C(O)=C(C(N)=O)C(=O)[C@@]2(O)C(O)=C3C(=O)c4c(O)cccc4[C@@](C)(O)[C@H]3C[C@@H]12 [TET, tetracycline, reference compound]
MIC (S. aureus BAA-44): 32 µg/mL
